Experimental data reported in US20060035925A1, “SUBSTITUTED 4H-CHROMENES AND ANALOGS AS ACTIVATORS OF CASPASES AND INDUCERS OF APOPTOSIS AND THE USE THEREOF” (Cytovia, Inc., priority 1999, published 2006).
Where two headings read alike, the source gives them in different places.

Tests used:
[1] = tested on: Human breast cancer cell line ZR-75-1; assay: Caspase cascade activation assay (N-(Ac-DEVD)-N'-ethoxycarbonyl-R110 fluorogenic substrate) in ZR-75-1 cells; format: cell-based; details: ZR-75-1 cells; for EC50: 24 h incubation, sigmoidal dose-response, read-out: Caspase potency EC50 (nM) ZR-75-1; for Caspase activity (Ratio) ZR-75-1: 24 h incubation with compound, ratio of net RFU (T=3 h) of test compound to control
How it was run: (§1)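 Cells were exposed for 24 h at 37 °C to test compound at 0.016–1 μM final. Lysed with lysolecithin buffer (pH 7.2, DTT) containing 20 μM Ac-DEVD-R110 substrate, and fluorescence (ex 485/em 530 nm) read at 0 and 3 h at room temperature. EC50 from sigmoidal fit of net RFU ratio to control.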

[2] = tested on: Human breast cancer cell line T-47D; assay: Caspase cascade activation assay (N-(Ac-DEVD)-N'-ethoxycarbonyl-R110 fluorogenic substrate) in T-47D cells; format: cell-based; details: for Caspase activity (Ratio) T-47D: 24 h incubation with compound, ratio of net RFU (T=3 h) of test compound to control; for EC50: 24 h incubation, sigmoidal dose-response, read-out: Caspase potency EC50 (nM) T-47D
How it was run: as §1

EC50 ([1]; Homo sapiens, ZR-75-1, 24 h) [nM]	EC50 ([2]; Homo sapiens, T47D, 24 h) [nM]	EC50 [1] [nM]	EC50 [2] [nM]	SMILES	Caspase activity (Ratio) ZR-75-1 [1]	Caspase activity (Ratio) T-47D [2]
1470	1980	–	–	COc1cc(C2(C)C(C#N)=C(N)Oc3cc(N(C)C)ccc32)cc(Br)c1OC (stereo not drawn) [Example 68A, 2-Amino-3-cyano-7-dimethylamino-4-(3-bromo-4,5-dimethoxyphenyl)-4-methylchromene]	6.5	6.8
> 10000	> 10000	–	–	CC1(c2ccccc2)C(C#N)=C(N)Oc2ccccc21 (stereo not drawn) [Example 68B, 2-Amino-3-cyano-4-phenyl-4-methylchromene]	1.8	1.0
45.3	90.7	–	–	COc1cccc(C2C(C#N)=C(N)Sc3cc(OC)ccc32)c1 (stereo not drawn) [Example 70, 2-Amino-3-cyano-7-methoxy-4-(3-methoxyphenyl)-4H-thiochromene]	6.6	9.1
3720	7850	–	–	N#CC1=C(N)Nc2ccccc2C1c1ccccc1 (stereo not drawn) [Example 71, 2-Amino-3-cyano-4-phenyl-1,4-dihydroquinoline]	4.1	3.1
–	–	26.7	29.4	COC(=O)C1=C(N)Oc2c(ccc3[nH]ccc23)C1c1cc(Br)c(OC)c(OC)c1 (stereo not drawn) [Example 73]	9.0	7.5
99.3	149	–	–	COc1cc(C2C(C#N)=C(N)Oc3c2ccc(N)c3O)cc(Br)c1OC (stereo not drawn) [Example 74, 2-Amino-3-cyano-7-amino-8-hydroxy-4-(3-bromo-4,5-dimethoxyphenyl)-4H-chromene]	8.9	7.4
4100	> 10000	–	–	CNC1=C(C#N)C(c2cc(Br)c(OC)c(OC)c2)c2ccc3ccn(C)c3c2O1 (stereo not drawn) [Example 76, 3-Cyano-4-(3-bromo-4,5-dimethoxyphenyl)-2-methylamino-9-methyl-4H-pyrrolo[3,2-h]chromene]	2.3	2.0
23.9	27.7	–	–	COc1cc(C2C(C#N)=C(N)Oc3c2ccc2ccn(C)c32)cc(Br)c1OC (stereo not drawn) [Example 77, 2-Amino-4-(3-bromo-4,5-dimethoxyphenyl)-3-cyano-9-methyl-4H-pyrrolo[3,2-h]chromene]	3.1	4.2
–	–	537	> 1000	COc1cccc(C2C(C#N)=C(N)Oc3c2ccc2nccnc32)c1 (stereo not drawn) [Example 78, 2-Amino-3-cyano-4-(3-methoxyphenyl)-4H-pyrazino[2,3-h]chromene]	3.6	1.8
–	–	103	209	COc1cc(C2C(C#N)=C(N)Oc3c2ccc2nccnc32)cc(Br)c1OC (stereo not drawn) [Example 79, 2-Amino-3-cyano-4-(3-bromo-4,5-dimethoxy-phenyl)-4H-pyrazino [2,3-h]chromene]	10.2	8.3
–	–	21.5	50.5	COc1cc(C2C(C#N)=C(N)Oc3c2ccc2[nH]c(=O)[nH]c32)cc(Br)c1OC (stereo not drawn) [Example 80, 2-Amino-3-cyano-4-(3-bromo-4,5-dimethoxy-phenyl)-8-oxo-4,7,8,9-tetrahydroimidazo[4,5-h]chromene]	7.5	8.8

More lines, now with the values behind:

SMILES	EC50 ([1]; Homo sapiens, ZR-75-1, 24 h) [nM]	EC50 ([2]; Homo sapiens, T47D, 24 h) [nM]	EC50 [1] [nM]	EC50 [2] [nM]	Caspase activity (Ratio) ZR-75-1 [1]	Caspase activity (Ratio) T-47D [2]
Cc1cncc(C2C3=CC=C4N=CC=C4C3OC(N)=C2C#N)n1 (stereo not drawn) [Example 58, 2-Amino-3-cyano-4-(6-methyl-pyrazin-2-yl)-4H-indolo[4,5-b]pyran]	1630	2900	–	–	7.0	4.1
N#CC1=C(N)OC2C3=CC=NC3=CC=C2C1c1cnc2ccccc2n1 (stereo not drawn) [Example 59, 2-Amino-3-cyano-4-(quinoxalin-2-yl)-4H-indolo[4,5-b]pyran]	> 10000	> 10000	–	–	1.2	1.1
N#CC1=C(N)OC2C(=CC=C3C=CN=C32)C1c1cncc(C#N)c1 (stereo not drawn) [Example 60, 2-Amino-3-cyano-4-(5-cyano-pyridin-3-yl)-4H-indolo[7,6-b]pyran]	57	388	–	–	5.5	6.7
Cc1cncc(C2C3=CC=C4C=CN=C4C3OC(N)=C2C#N)n1 (stereo not drawn) [Example 61, 2-Amino-3-cyano-4-(6-methyl-pyrazin-2-yl)-4H-indolo[7,6-b]pyran]	1630	2900	–	–	7.0	4.1
COc1cc(C2C(C#N)=C(N)Oc3cc(Br)ccc32)cc(Br)c1OC (stereo not drawn) [Example 62, 2-Amino-7-bromo-4-(3-bromo-4,5-dimethoxy-phenyl)-3-cyano-4H-chromene]	75.3	144	–	–	6.0	6.6
COc1cc(C2C(C#N)=C(N)Oc3cc(Cl)ccc32)cc(Br)c1OC (stereo not drawn) [Example 63, 2-Amino-4-(3-bromo-4,5-dimethoxy-phenyl)-7-chloro-3-cyano-4H-chromene]	114	147	–	–	10.1	9.1
COc1cc(C2C(C#N)=C(N)Oc3c2ccc2[nH]cnc32)cc(Br)c1OC (stereo not drawn) [Example 64, 2-Amino-3-cyano-4-(3-bromo-4,5-dimethoxy-phenyl)-4H-imidazo[4,5-h]chromene]	–	–	13.2	28.8	4.8	8.0
COc1cc(C2C(C#N)=C(N)Oc3c2ccc2[nH]c(C)nc32)cc(Br)c1OC (stereo not drawn) [Example 65, 2-Amino-3-cyano-4-(3-bromo-4,5-dimethoxy-phenyl)-8-methyl-4H-imidazo[4,5-h]-chromene]	–	–	570	> 1000	6.0	1.5
COc1cc(C2C(C#N)=C(N)Oc3cc(N4CCCC4)ccc32)cc(Br)c1OC (stereo not drawn) [Example 66A, 2-Amino-3-cyano-7-pyrrolidine-4-(3-bromo-4,5-dimethoxyphenyl)-4H-chromene]	–	–	79.4	110	6.0	3.7
COc1cc(C2C(C#N)=C(N)Oc3cc(N4CCNCC4)ccc32)cc(Br)c1OC (stereo not drawn) [Example 66B, 2-Amino-3-cyano-7-piperazine-4-(3-bromo-4,5-dimethoxyphenyl)-4H-chromene]	–	–	1470	2910	6.8	5.7
COc1cc(C2C(C#N)=C(N)Oc3cc(N4CCOCC4)ccc32)cc(Br)c1OC (stereo not drawn) [Example 66C, 2-Amino-3-cyano-7-N-morpholine-4-(3-bromo-4,5-dimethoxyphenyl)-4H-chromene]	–	–	86.8	166	7.4	10.4
COc1cc(C2C(C#N)=C(N)Oc3cc(-n4cccc4)ccc32)cc(Br)c1OC (stereo not drawn) [Example 67, 2-Amino-3-cyano-7-pyrrole-4-(3-bromo-4,5-dimethoxyphenyl)-4H-chromene]	–	–	148	349	6.9	9.2
C1CCNCC1.C1CCNCC1.COc1cc(C2C(C#N)=C(N)Oc3c2ccc2[nH]ccc32)cc(Br)c1OP(=O)(O)O (stereo not drawn) [Example 69, 2-Amino-3-cyano-4-(3-bromo-4-phosphoric acid-dipiperidine salt-5-methoxyphenyl)-4H-indolo[4,5-b]pyran]	–	–	284	582	5.6	3.5
